# Laboratory results: patent US7220402B1, “Alpha-fetoprotein peptides and uses for imaging” (Ordway Research Institute, Inc., priority 2001, dated 2007)
# Entries after “also recorded” stand apart in the source; their conditions may differ. Square brackets hold non-standard residues; d marks the D form. Ends that are not written are not given here. Hyp = O=C(O)[C@@H]1C[C@@H](O)CN1
# What was measured:
# [1] = tested on: E2-stimulated growth of immature mouse uterus; experiment: Immature mouse uterine growth assay (anti-estrotrophic activity); assay type: in vivo; settings: for optimal dose for inhibition of estrogen-stimulated growth of mouse uterus: i.p., biphasic dose-response (FIG. 1a); for inhibition of the uterotrophic effect of estradiol: Pep 1 μg i.p. one hour before E2 0.5 μg i.p., uteri weighed 22 h later (FIG. 13b)
# Procedure: FIGS. 1a and 1b illustrate the anti-uterotrophic activity of octapeptide, SEQ ID NO: 2, […], measured in the immature mouse uterine growth assay. Peptide or vehicle control was injected i.p. into immature female Swiss mice. One hour later 0.5 μg of E2 vehicle control was injected i.p. into these mice. Twenty-two hours later, uteri were dissected and weighed. Percent inhibition of E2-stimulated growth of uterus by peptide was calculated as described in Materials and Methods. There were five to eight replicate mice per treatment group.
# (§1) Immature Mouse Uterine Growth Assay.
# Differences between groups were evaluated, employing the non-parametric Wilcoxon Sum of Ranks test (one-sided). In all cases, growth inhibitions that were greater than 25% were significant at p≦0.05.
# [2] = tested on: MCF-7 subline made resistant to tamoxifen in culture (MCF-7/Tam xenografts); experiment: Human breast cancer xenograft assay, tamoxifen-resistant MCF-7 subline; assay type: in vivo; settings: E2-supplemented SCID mice; peptide 1 μg i.p. twice a day, tamoxifen 50 μg i.p. once a day; day 30
# Procedure: (§2) FIGS. 9a and 9b illustrate the effect of AFP-derived peptide on growth of estrogen-receptor-positive MCF-7 and MCF-7/Tarn human breast cancer xenografts. Tumors were implanted as described in Materials and Methods. Estrogen (●) was provided via a slow-release pellet of estradiol (E2) implanted s.c. Peptide (▴) was given twice a day i.p. at a dose of 1 μg per injection. […] Tumor volumes in each mouse were measured at the time of tumor implantation, again at day 15 after tumor implantation during survival laparotomy and again at day 30 after tumor implantation during necropsy. There was a minimum of 5 mice per group.
# Cell Lines. T47D and MDA-231 human breast cancer cell lines were purchased from the American Type Culture Collection (Manassas, Va.). […]
# (§3) Human Breast Cancer Xenograft Assay. […] Tumor growth was monitored during survival laparotomy at 10 day intervals by measurement of the diameters of the short (d) and long axes (D) of each tumor, using a dissecting microscope equipped with an ocular micrometer. Tumor volumes were calculated using the formula (π/6) (d)^2 D, assuming the tumor shape to be an ellipsoid of revolution around its long axis (D). […] Mean tumor volume±standard error in each group was calculated for display of growth curves. […]
# [3] = tested on: MCF-7 human breast cancer xenografts; experiment: Human breast cancer xenograft assay, MCF-7; assay type: in vivo; settings: E2-supplemented SCID mice; peptide 1 μg i.p. twice a day, tamoxifen 50 μg i.p. once a day; 30-day observation
# Procedure: FIG. 5 illustrates the anti-estrotrophic activity of hydroxyproline-substituted linear peptide against MCF-7 human breast cancer xenografts. There were five to eight replicate mice per treatment group. Estrogen was provided via a slow release pellet implanted subcutaneously. Peptide was given twice a day i.p. at a dose of 1 μg per mouse. Tumor volumes in each mouse were measured at the time of tumor implantation and at 10-day intervals thereafter during survival laparotomies.
# as §2, with “Methods.” for “Methods. Estrogen (●) was provided via a slow-release pellet of estradiol (E2) implanted s.c. Peptide (▴) was given twice a day i.p. at a dose of 1 μg per injection.”, “There was a minimum of 5 mice per group.” left out
# as §3
# [4] = tested on: MCF-7 human breast cancer xenografts; settings: Bennett et al. 1998; cited from earlier work
# immature mouse uterus = experiment: Uterotrophic effect of test agent alone on immature mouse uterus; settings: agent alone i.p.; peptide up to 10 μg/mouse
# Procedure: Various doses indicated on the abscissa of each test agent were injected i.p. Twenty-two hours later uteri were harvested and weighed. Mean normalized uterine weights (mg uterine weight/g mouse body weight) for each group are shown on the ordinate. In FIG. 13b, Pep (1 μg) or vehicle (saline, 0.2 ml) were injected i.p. One hour later E2 (0.5 μg) or Tam (1.0 μg) were injected i.p. Twenty-two hours later uteri were harvested and weighed.
# A bioassay for anti-estrotrophic activity was performed using an immature mouse uterine growth assay (22). Swiss/Webster female mice, 6–8 g in body weight (13–15 days old), were obtained from Taconic Farms (Germantown, N.Y.). […] In a typical experiment, each group received two sequential intraperitoneal injections spaced one hour apart. Test material or vehicle control for that material was contained in the first injectant. Estradiol (E2) or vehicle control for E2 was contained in the second injectant. Twenty-two hours after the second injection, uteri were dissected, trimmed free of mesenteries, and immediately weighed. […] Experiments employed a minimum of five mice per group, and the mean normalized uterine weight±standard error for each group was calculated. Percent growth inhibition in a test group was calculated from the normalized uterine wet weights as described below. […]
# [5] = tested on: estrogen-receptor-negative MDA-MB-231 human breast cancer xenografts; experiment: Human breast cancer xenograft assay, MDA-MB-231; assay type: in vivo; settings: SCID mice, peptide 1 μg i.p. twice a day, tamoxifen 50 μg i.p. once a day, 30-day observation
# [6] = tested on: estrogen-receptor-positive T47D human breast cancer xenografts; experiment: Human breast cancer xenograft assay, T47D; assay type: in vivo; settings: E2-supplemented SCID mice; peptide 1 μg i.p. twice a day; 30-day observation
# [7] = tested on: tamoxifen-stimulated growth of immature mouse uterus; experiment: Inhibition of tamoxifen-stimulated growth of immature mouse uterus; assay type: in vivo; settings: Pep 1 μg i.p. one hour before Tam 1.0 μg i.p., uteri weighed 22 h later
# Excerpt: as §1
# estrogen receptor = biological target: T1, estrogen receptor (Oryctolagus cuniculus, UniProt G1SML6); experiment: Assessment of estrogen receptor antagonism ([3H]estradiol binding, rabbit uterine cytosol)
# T1 sequence (G1SML6 1-598): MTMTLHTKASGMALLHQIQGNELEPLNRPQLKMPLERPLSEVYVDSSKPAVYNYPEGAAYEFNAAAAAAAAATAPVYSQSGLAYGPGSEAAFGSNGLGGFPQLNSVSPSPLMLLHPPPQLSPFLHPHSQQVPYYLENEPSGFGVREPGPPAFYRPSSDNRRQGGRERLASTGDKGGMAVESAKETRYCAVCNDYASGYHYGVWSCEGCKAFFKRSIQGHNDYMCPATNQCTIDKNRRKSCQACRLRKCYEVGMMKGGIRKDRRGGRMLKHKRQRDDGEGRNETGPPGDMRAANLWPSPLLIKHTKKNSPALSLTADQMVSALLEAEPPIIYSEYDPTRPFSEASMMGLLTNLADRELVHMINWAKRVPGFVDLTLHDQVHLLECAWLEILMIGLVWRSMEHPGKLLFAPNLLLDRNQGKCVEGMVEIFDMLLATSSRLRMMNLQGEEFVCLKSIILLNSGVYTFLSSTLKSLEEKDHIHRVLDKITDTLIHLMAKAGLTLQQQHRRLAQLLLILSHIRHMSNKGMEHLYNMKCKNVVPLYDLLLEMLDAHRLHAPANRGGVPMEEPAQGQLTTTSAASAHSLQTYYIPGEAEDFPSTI
# Procedure: (§4) Rabbit uterine cytosol was used as a source of estrogen receptor.
# as §4
# Assessment of Estrogen Receptor Antagonism. Commercially obtained rabbit uteri (Pel-Freez Biological, Rogers, Ark.) were used as a source of estrogen receptor. […] Total count tubes received 20 μl of [3H]estradiol and 180 μl of assay buffer. After incubation overnight at 4° C., all but the total count tubes received 300 μl of dextran-coated charcoal suspension; tubes were agitated for 15 min and then centrifuged (1,000×g) for 15 min. Supernatants were decanted into counting vials, scintillant was added, and protein-bound tritium was determined by liquid scintillation counting.
# [8] = Preliminary pharmacokinetic studies in mice; assay type: in vivo
compound,measurement,setting,value
QMTPVNPG (listed as Homo sapiens) [SEQ ID NO: 2],% Inhibition of E2-Stimulated Growth of Immature Mouse Uterus ± SE,"[1]; Storage Time: Fresh, 1 μg peptide i.p.",38 ± 3%
same,% Inhibition of E2-Stimulated Growth of Immature Mouse Uterus ± SE,"[1]; Stored over 1 year (lyophilized, −20° C.), 1 μg peptide i.p.",0 ± 2%
same,% Inhibition of E2-Stimulated Growth of Immature Mouse Uterus ± SE,"[1]; after Urea Treatment (4 M urea, room temperature, one hour) of agent II (stored over 1 year) or IV (fresh), 1 μg i.p.",34 ± 4%
same,anti-estrotrophic activity after storage (shelf-life),"[1]; after five weeks of storage at −20° C. lyophilized, 1 μg per mouse (FIG. 1b)",diminished to insignificant levels
same,optimal dose for inhibition of estrogen-stimulated growth of mouse uterus,[1],1 μg/mouse
same,biological activity of higher molecular weight gel-filtration fraction of aged peptide,"[1]; left side of peak (FIG. 2b), 1 μg i.p.",biologically inactive
same,biological activity of lower molecular weight gel-filtration fraction of aged peptide,"[1]; right side of peak (FIG. 2b), 1 μg i.p.",active
same,biological activity of aged peptide,[1]; stored in the lyophilized state at −20° C. for over one year,completely biologically inactive
same,biological activity of stored inactive peptide after brief treatment with 4M urea,[1],restored its biological activity
"CC/C(=C(\c1ccccc1)c1ccc(OCCN(C)C)cc1)c1ccccc1 [tamoxifen, reference compound]",effect on growth (tumor volume vs E2 alone) of tamoxifen-resistant MCF-7 subline xenografts,[2],resistant to tamoxifen in vivo; also recorded: only minimally effective
same,effect on growth (tumor volume vs E2 alone) of MCF-7 xenografts,[3],prevented growth; also recorded: no increase in tumor volume
same,effect on MCF-7 breast cancer xenograft growth in an earlier study,[4],shown to stop MCF-7 breast cancer xenograft growth
same,uterotrophic effect on immature mouse uterus,immature mouse uterus,stimulate the growth of the immature mouse uterus
same,effect on growth of MDA-MB-231 xenografts,[5],Neither peptide nor tamoxifen were effective; also recorded: did not affect the growth
same,effect on growth (tumor volume vs E2 alone) of T47D xenografts,[6],prevented growth
EMTOVNOG (EMT[Hyp]VN[Hyp]G; listed as Homo sapiens) [SEQ ID NO: 4],effect on growth (tumor volume vs E2 alone) of tamoxifen-resistant MCF-7 subline xenografts,[2],completely prevented the xenograft growth; also recorded: completely stopped the growth
same,effect on growth (tumor volume vs E2 alone) of MCF-7 xenografts,[3],prevented growth; also recorded: no significant increase in tumor volume
same,inhibition of the uterotrophic effect of tamoxifen,[7],significantly inhibited
same,inhibition of the uterotrophic effect of tamoxifen,[7]; listed as peptide,inhibited
same,competition/interference with estrogen binding to the estrogen receptor,"estrogen receptor; cell-free system, no concentration stated",does not interfere
same,interference with E2 binding to ER,estrogen receptor; peptide concentration range of 10^−10M to 10^−5M,no interference
same,inhibition of the uterotrophic effect of estradiol,[1]; listed as Pep,significantly different
same,inhibition of the uterotrophic effect of estradiol,[1]; listed as peptide,inhibited
same,effect on growth of MDA-MB-231 xenografts,[5],Neither peptide nor tamoxifen were effective; also recorded: no effect on the growth
same,effect on growth of MDA-MB-231 xenografts,[5]; listed as AFP-derived peptide,no differences in tumor volumes between any of the groups
same,effect on growth (tumor volume vs E2 alone) of T47D xenografts,[6],completely prevented tumor growth
same,biological half-life,[8],two to three
"EMTPVNPG (listed as Homo sapiens) [SEQ ID NO: 6, amino acids 472–479 of alpha-fetoprotein]",optimal dose for inhibition of estrogen-stimulated growth of mouse uterus,[1],~1 μg/mouse
same,biological activity of stored inactive peptide after brief treatment with 4M urea,[1],regenerated
